Test results reported in ChEMBL document CHEMBL1201862, “PubChem BioAssay data set” (2004).
Active and inactive are the calls of the source.

How the values were obtained:
[1] = molecular target: T1, Runt-related transcription factor 1/Core-binding factor subunit beta (Homo sapiens, UniProt Q01196+Q13951); test: inhibitors of RUNX1 Runt–CBFb-SMMHC binding, primary screen, biochemical, FRET, Cerulean-Runt, Venus-CBFb-SMMHC, uHTS (AID 1434); type: protein assay;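 note: partner is the CBFb-SMMHC leukemia fusion protein rather than wild-type CBFb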
T1 sequence (Q01196 whole entry, the tested form may be a part): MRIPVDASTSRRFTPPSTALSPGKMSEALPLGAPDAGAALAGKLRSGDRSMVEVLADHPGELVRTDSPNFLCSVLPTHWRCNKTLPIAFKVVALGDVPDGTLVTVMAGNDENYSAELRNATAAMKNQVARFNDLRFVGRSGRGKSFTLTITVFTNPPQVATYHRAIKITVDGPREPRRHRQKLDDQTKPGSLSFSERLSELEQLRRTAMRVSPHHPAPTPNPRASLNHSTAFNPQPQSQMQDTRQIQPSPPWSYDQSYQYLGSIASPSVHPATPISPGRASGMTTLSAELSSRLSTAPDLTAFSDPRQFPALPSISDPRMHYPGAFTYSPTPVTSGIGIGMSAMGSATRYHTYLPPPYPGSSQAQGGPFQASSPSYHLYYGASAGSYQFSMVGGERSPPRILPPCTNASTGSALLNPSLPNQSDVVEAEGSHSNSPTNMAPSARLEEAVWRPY
T1 sequence (Q13951 whole entry, the tested form may be a part): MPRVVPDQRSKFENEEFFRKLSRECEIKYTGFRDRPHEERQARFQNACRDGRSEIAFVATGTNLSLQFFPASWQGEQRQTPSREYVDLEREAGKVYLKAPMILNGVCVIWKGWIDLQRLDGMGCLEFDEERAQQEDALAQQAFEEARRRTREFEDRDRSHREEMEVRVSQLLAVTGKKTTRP

[2] = molecular target: T1, Runt-related transcription factor 1/Core-binding factor subunit beta; test: inhibitors of RUNX1 Runt–CBFb-SMMHC binding, biochemical, TR-FRET (AID 1438); type: protein assay
H9c2 = test: cells; type: functional, cell-based; conditions: Rattus norvegicus, H9c2, Myocardium;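 note: confirmatory concentration-response retest of ultra-high-throughput screening hits for modulation of myocardial damage; cell death induced by hydrogen peroxide oxidative stress; compound pretreatment for 60 min then peroxide exposure for 2 h; potency is for protecting the cells against peroxide damage rather than for killing them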
[3] = molecular target: G-protein coupled receptor 55 (Homo sapiens, UniProt Q9Y2T6); test: GPR55 agonists via beta-arrestin recruitment, primary screen, imaging, U2OS cells, beta-arrestin-GFP redistribution (AID 1961); type: functional
G-protein coupled receptor 55, sequence (Q9Y2T6 whole entry): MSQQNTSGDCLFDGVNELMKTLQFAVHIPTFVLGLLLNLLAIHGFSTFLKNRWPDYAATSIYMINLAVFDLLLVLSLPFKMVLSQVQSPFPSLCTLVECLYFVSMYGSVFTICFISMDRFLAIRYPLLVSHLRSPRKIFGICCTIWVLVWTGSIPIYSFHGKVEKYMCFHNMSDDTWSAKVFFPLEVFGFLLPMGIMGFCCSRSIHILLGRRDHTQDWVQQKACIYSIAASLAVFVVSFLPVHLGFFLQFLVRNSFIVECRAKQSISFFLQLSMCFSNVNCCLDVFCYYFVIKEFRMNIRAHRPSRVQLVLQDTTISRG

[4] = cytotoxicity toward NIH3T3 fibroblasts, dose response, counter-screen, cell-based, ATP luminescence, mouse fibroblasts (AID 2010); type: functional;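 note: cells exposed to compound for about 90 hours before reading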
[5] = molecular target: T2, Heat shock factor protein 1 (Mus musculus, UniProt P38532); test: inhibition of MG132-induced HSE-luciferase signal, confirmation, cell-based, NIH3T3, luminescence, dose retest (AID 2382); type: functional;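 note: NIH3T3 fibroblasts with HSF1-driven luciferase reporter stressed by proteasome inhibitor MG132; luminescence from HSF1-driven luciferase expression after 8 hours of MG132 stress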
T2 sequence (P38532 whole entry): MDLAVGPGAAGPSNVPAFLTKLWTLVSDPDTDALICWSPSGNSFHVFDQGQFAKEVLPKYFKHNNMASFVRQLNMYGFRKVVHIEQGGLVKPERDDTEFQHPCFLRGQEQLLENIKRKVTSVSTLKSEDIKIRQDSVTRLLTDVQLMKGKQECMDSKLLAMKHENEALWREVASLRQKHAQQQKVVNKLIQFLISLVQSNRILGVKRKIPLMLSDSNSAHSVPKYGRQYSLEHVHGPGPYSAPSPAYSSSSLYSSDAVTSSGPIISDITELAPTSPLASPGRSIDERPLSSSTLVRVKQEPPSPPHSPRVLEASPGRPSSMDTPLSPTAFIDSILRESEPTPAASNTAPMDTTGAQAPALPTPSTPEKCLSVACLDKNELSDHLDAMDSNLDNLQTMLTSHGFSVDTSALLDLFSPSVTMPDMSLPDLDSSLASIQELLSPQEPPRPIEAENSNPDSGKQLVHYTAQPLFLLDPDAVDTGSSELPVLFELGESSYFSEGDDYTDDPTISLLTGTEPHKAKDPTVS

[6] = molecular target: Microphthalmia-associated transcription factor (Homo sapiens, UniProt O75030); test: TRPM1 promoter luciferase signal decrease, dose response, MITF inhibitor project, cell-based, SK-MEL-5, cherry-picked, set 3 (AID 493073); type: functional
Microphthalmia-associated transcription factor, sequence (O75030 whole entry): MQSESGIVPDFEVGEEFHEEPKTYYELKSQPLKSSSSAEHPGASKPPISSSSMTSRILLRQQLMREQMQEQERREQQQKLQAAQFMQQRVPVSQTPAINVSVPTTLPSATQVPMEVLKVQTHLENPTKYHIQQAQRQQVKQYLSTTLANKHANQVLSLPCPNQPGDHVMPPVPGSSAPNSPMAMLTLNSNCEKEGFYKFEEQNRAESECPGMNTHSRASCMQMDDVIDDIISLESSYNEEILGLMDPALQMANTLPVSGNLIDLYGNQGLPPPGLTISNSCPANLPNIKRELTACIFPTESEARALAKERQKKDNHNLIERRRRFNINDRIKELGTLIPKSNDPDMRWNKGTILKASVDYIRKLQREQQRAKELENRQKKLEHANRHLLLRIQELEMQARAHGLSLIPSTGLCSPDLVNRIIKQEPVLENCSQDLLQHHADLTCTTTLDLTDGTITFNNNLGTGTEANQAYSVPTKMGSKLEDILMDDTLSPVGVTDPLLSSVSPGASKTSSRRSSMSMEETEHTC

[7] = inhibitors of intracellular T. cruzi replication, confirmation, NIH3T3 host cells, beta-gal luminescence (AID 2044); type: functional, cell-based;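 note: intracellular parasites grown in NIH/3T3 mouse fibroblasts as host cells; luminescent beta-galactosidase reporter signal from transgenic T. cruzi replicating inside host cells; inhibitors lower the luminescence signal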
[8] = molecular target: T2, Heat shock factor protein 1; test: HSF1 potentiators in luciferase reporter cells, confirmation, cell-based, NIH3T3, luminescence, dose retest (AID 435004); type: functional;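 note: stress induced by proteasome inhibitor MG132 added 30 min after compound; luciferase reporter driven by HSF1 response element in NIH3T3 cells; actives raise luminescence as potentiators of the MG132 stress response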
[9] = molecular target: T3, Polyadenylate-binding protein 1 (Homo sapiens, UniProt P11940); test: PABP1 MLLE–PAM2 binding inhibitor potency, dose response, biochemical, fluorescence polarization, FITC-PAM2 peptide (AID 602259); type: functional; conditions: read-out: IC50_Mean
T3 sequence (P11940 whole entry): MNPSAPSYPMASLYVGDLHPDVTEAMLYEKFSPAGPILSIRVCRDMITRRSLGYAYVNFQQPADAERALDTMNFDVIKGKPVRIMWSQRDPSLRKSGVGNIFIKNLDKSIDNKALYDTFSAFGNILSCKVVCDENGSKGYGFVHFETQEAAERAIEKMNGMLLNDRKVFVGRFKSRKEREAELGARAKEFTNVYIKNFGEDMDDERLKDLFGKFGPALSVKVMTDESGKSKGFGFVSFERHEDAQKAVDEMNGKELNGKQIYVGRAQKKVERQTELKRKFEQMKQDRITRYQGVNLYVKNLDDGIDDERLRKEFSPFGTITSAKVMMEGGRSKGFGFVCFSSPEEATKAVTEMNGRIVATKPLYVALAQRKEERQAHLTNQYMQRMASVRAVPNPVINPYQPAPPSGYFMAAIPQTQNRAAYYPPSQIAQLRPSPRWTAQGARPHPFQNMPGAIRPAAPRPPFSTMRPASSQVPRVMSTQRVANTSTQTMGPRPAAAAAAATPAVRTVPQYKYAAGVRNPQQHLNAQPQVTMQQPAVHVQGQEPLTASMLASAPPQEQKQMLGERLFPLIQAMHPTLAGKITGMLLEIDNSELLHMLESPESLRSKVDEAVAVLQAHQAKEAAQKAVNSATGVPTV

[10] = molecular target: E3 ubiquitin-protein ligase Mdm2 (Homo sapiens, UniProt Q00987); test: enhancers of MDM2-luciferase reporter signal, concentration-effect titration, project on inhibitors of MDM2 ubiquitin ligase, cellular assay, luminescent readout, 384-well plate format (AID 1394); type: functional;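 note: MDM2 E3 inhibitors raise luminescence so EC50 is for signal enhancement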
E3 ubiquitin-protein ligase Mdm2, sequence (Q00987 whole entry): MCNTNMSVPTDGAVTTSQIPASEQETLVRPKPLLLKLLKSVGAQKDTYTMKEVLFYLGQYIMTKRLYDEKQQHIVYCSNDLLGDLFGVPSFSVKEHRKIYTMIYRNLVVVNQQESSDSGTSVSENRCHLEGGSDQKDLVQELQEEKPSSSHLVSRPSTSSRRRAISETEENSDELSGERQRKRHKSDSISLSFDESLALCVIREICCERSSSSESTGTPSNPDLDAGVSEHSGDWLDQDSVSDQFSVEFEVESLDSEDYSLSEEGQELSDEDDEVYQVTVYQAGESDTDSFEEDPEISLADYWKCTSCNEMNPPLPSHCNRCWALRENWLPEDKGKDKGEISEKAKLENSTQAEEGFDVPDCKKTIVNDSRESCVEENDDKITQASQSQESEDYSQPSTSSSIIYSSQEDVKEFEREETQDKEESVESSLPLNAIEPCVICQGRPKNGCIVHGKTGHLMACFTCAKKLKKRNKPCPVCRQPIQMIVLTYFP

[11] = molecular target: T3, Polyadenylate-binding protein 1; test: PABP1 MLLE–PAM2 interaction inhibitors, dose response, miRNA deadenylation inhibitor project, biochemical, fluorescence polarization, Cy5-PAM2 peptide, secondary (AID 602260); type: functional; conditions: read-out: IC50_Mean

| EC50 [8] | IC50 [9] | EC50 [10] | IC50 [11] | SMILES | IC50 [1] | IC50 [2] | IC50 (H9c2) | EC50 [3] | EC50 [4] | EC50 [5] | AC50 [6] | EC50 [7] |
| --- | --- | --- | --- | --- | --- | --- | --- | --- | --- | --- | --- | --- |
|  |  |  |  | CC(C)c1cc(N2CCN(C(=O)c3ccco3)CC2)n2c(nc3ccccc32)c1C#N | > 100 µM (inactive) | > 100 µM (inactive) | 15.5 µM (active) |  |  |  |  |  |
|  |  |  |  | COc1ccc(C(=O)/C=C/C(=O)N(CC(=O)NC2CCCCC2)Cc2ccc(F)cc2)c(O)c1 |  |  |  | > 32 µM (inactive) | > 60 µM (not active) | 5.29 µM (active) | 5.45 µM (active) | 1.61 µM (active) |
| 14.7 µM (active) | > 66 µM (inactive) | 1 µM (active) | > 66 µM (inactive) | Cc1cc(C)nc(S/C=C/C(=O)c2ccccc2F)n1 |  |  |  |  |  |  | 5.37 µM (active) |  |
